Experimental findings from ChEMBL document CHEMBL4813932, “Terpenoid Constituents of Perovskia artemisioides Aerial Parts with Inhibitory Effects on Bacterial Biofilm Growth” (2021) are described below.

A word on the inhibition: it is the relative decrease from the control value, in per cent. High values mean a strong effect, low ones a weak effect.

What all share (assay): microbe, parasite or virus in culture
Common to all, as to assay type: functional

The test system of experiment [1] is Pectobacterium carotovorum. Particulars: ATCC 15713, time 48 hrs.
Experiment [2] has as its system Acinetobacter baumannii. As to conditions: ATCC 19606 = CIP 70.34 = JCM 6841, time 48 hrs.
Experiment [3] concerns Escherichia coli. As to conditions: DSM 8579, time 48 hrs.
The test system of experiment [4] is Acinetobacter baumannii. Particulars: ATCC 19606 = CIP 70.34 = JCM 6841, time 48 hrs. This is another data set of the same source.
Experiment [5] relates to Pectobacterium carotovorum. Particulars: ATCC 15713, time 48 hrs. The source holds these as a separate data set.
In experiment [6] the test system is Staphylococcus aureus. As to conditions: ATCC 25923, time 48 hrs.
For experiment [7], the system named is Listeria monocytogenes. Particulars: ATCC 7644, time 48 hrs.
Experiment [8] has as its system Acinetobacter baumannii. As to conditions: ATCC 19606 = CIP 70.34 = JCM 6841, time 48 hrs. This is another data set of the same source.
In experiment [9] the test system is Escherichia coli. As to conditions: DSM 8579, time 48 hrs. The source holds these as a separate data set.
The test system of experiment [10] is Escherichia coli. Particulars: DSM 8579, time 48 hrs. The source holds these as a separate data set.
In experiment [11] the test system is Staphylococcus aureus. As to conditions: ATCC 25923, time 48 hrs. This is another data set of the same source.
Experiment [12] concerns Staphylococcus aureus. Particulars: ATCC 25923, time 48 hrs. The source holds these as a separate data set.
Experiment [13] deals with Listeria monocytogenes. As to conditions: ATCC 7644, time 48 hrs. This is another data set of the same source.
The test system of experiment [14] is Pectobacterium carotovorum. As to conditions: ATCC 15713, time 48 hrs. The source holds these as a separate data set.
The test system of experiment [15] is Listeria monocytogenes. As to conditions: ATCC 7644, time 48 hrs. This is another data set of the same source.
The subject of experiment [16] is Pseudomonas aeruginosa. As to conditions: ATCC 50071, time 48 hrs.
The subject of experiment [17] is Acinetobacter baumannii. Particulars: ATCC 19606 = CIP 70.34 = JCM 6841, time 48 hrs. This is another data set of the same source.
In experiment [18] the test system is Escherichia coli. As to conditions: DSM 8579, time 48 hrs. The source holds these as a separate data set.
The test system of experiment [19] is Listeria monocytogenes. As to conditions: ATCC 7644, time 48 hrs. The source holds these as a separate data set.
For experiment [20], the system named is Pseudomonas aeruginosa. Particulars: ATCC 50071, time 48 hrs. This is another data set of the same source.
Experiment [21] relates to Pectobacterium carotovorum. Particulars: ATCC 15713, time 48 hrs. This is another data set of the same source.
In experiment [22] the test system is Pseudomonas aeruginosa. As to conditions: ATCC 50071, time 48 hrs. This is another data set of the same source.
The test system of experiment [23] is Pseudomonas aeruginosa. As to conditions: ATCC 50071, time 48 hrs. This is another data set of the same source.
The test system of experiment [24] is Staphylococcus aureus. As to conditions: ATCC 25923, time 48 hrs. The source holds these as a separate data set.

SMILES strings stand for the structures.

As to `CC(C)c1cc2c(c(O)c1O)[C@@]13CCCC(C)(C)[C@@H]1[C@H](OC3=O)[C@H]2O` [ROSMANOL], the inhibition at 4 µg/mL in experiment [1] came out at 0%; in the experiment on Acinetobacter baumannii [4] it was 44.2%; in the experiment on Listeria monocytogenes [7], 47.3%; in the experiment with Acinetobacter baumannii [8] it was 6.9%; in the experiment on Staphylococcus aureus [12] it was 45.1%; in experiment [14], 45.6%. In addition, the inhibition at 4 µg/mL was found to be 24.9% in the experiment on Listeria monocytogenes [15], 68.4% with Pseudomonas aeruginosa [22], 3.7% with Pseudomonas aeruginosa [23] and 63.8% with Staphylococcus aureus [24]. For the same compound, the inhibition at 8 µg/mL came to 55.5% in the experiment with Acinetobacter baumannii [2]; 46.6% in experiment [5]; 70.6% in the experiment with Staphylococcus aureus [6]; 79.9% in the experiment on Staphylococcus aureus [11]; 68.7% in the experiment on Listeria monocytogenes [13]; 9.5% in the experiment on Pseudomonas aeruginosa [16]. Besides, the inhibition at 8 µg/mL in the experiment with Acinetobacter baumannii [17] was found to be 20.3%; in the experiment on Listeria monocytogenes [19], 39.8%; in the experiment on Pseudomonas aeruginosa [20] it was 73.1%; in experiment [21], 26.2%. For the same compound, the inhibition at 80 µg/mL in the experiment on Escherichia coli [3] and in the experiment on Escherichia coli [9] was 0% in each case. The inhibition at 40 µg/mL with Escherichia coli [10] and with Escherichia coli [18] was 0% throughout.
Turning to `COc1c(C(C)C)cc2c(c1O)[C@]1(C(=O)O)CCCC(C)(C)[C@@H]1CC2` (relative stereo), the inhibition at 80 µg/mL with Escherichia coli [3] was 92.8%; with Escherichia coli [9] it was 89.1%. In addition, the inhibition at 8 µg/mL came out at 8% in the experiment on Staphylococcus aureus [6]; 8% in the experiment on Staphylococcus aureus [11]; 17.8% in the experiment with Listeria monocytogenes [13]; 46.8% with Pseudomonas aeruginosa [16]; 17.8% with Listeria monocytogenes [19]; 46.8% in the experiment with Pseudomonas aeruginosa [20]. Besides, the inhibition at 4 µg/mL in the experiment with Listeria monocytogenes [7] is 6.5%; in the experiment on Staphylococcus aureus [12], 0%; in the experiment with Listeria monocytogenes [15] it was 6.5%; with Pseudomonas aeruginosa [22] it was 27.2%; with Pseudomonas aeruginosa [23] it was 27.2%; with Staphylococcus aureus [24], 0%. The results for the inhibition at 40 µg/mL in the experiment with Escherichia coli [10] and in the experiment with Escherichia coli [18] were 46.3% and 92.6%, respectively.
With `CC1(C)C[C@H]2[C@H]1CC[C@@]1(C)C[C@@]2(O)CC[C@@H]1O`, the inhibition at 80 µg/mL was determined as 23.9% with Escherichia coli [3] and 18.2% with Escherichia coli [9]. Also, the inhibition at 8 µg/mL with Staphylococcus aureus [6] was 0%; with Staphylococcus aureus [11], 0%; with Listeria monocytogenes [13] it was 38.7%; in the experiment with Pseudomonas aeruginosa [16] it was 4%; with Listeria monocytogenes [19] it was 23.9%; in the experiment with Pseudomonas aeruginosa [20], 4%. The inhibition at 4 µg/mL with Listeria monocytogenes [7] amounted to 14.8%; in the experiment with Staphylococcus aureus [12], 0%; in the experiment with Listeria monocytogenes [15], 0%; in the experiment with Pseudomonas aeruginosa [22] it was 0%; in the experiment on Pseudomonas aeruginosa [23], 0%; in the experiment on Staphylococcus aureus [24], 0%. Moreover, the inhibition at 40 µg/mL in the experiment on Escherichia coli [10] and in the experiment with Escherichia coli [18] was 0% in each case.
In the case of `CC(C)c1cc2c(cc1O)[C@@]1(C)CCCC(C)(C)[C@@H]1CC2` [FERRUGINOL], the inhibition at 80 µg/mL in the experiment on Escherichia coli [3] amounted to 37.5%; with Escherichia coli [9], 24.7%. Also, the inhibition at 8 µg/mL came to 27.9% in the experiment with Staphylococcus aureus [6]; 44.6% in the experiment on Staphylococcus aureus [11]; 60.9% in the experiment with Listeria monocytogenes [13]; 45.2% in the experiment with Pseudomonas aeruginosa [16]; 14.2% with Listeria monocytogenes [19]; 53.2% with Pseudomonas aeruginosa [20]. For the same compound, the inhibition at 4 µg/mL is 35.6% in the experiment with Listeria monocytogenes [7]; 38.5% in the experiment on Staphylococcus aureus [12]; 0% in the experiment on Listeria monocytogenes [15]; 52.2% in the experiment with Pseudomonas aeruginosa [22]; 20.3% with Pseudomonas aeruginosa [23]; 0% in the experiment with Staphylococcus aureus [24]. For the same compound, the inhibition at 40 µg/mL stood at 9.1% with Escherichia coli [10] and 19.2% in the experiment with Escherichia coli [18].
